Assay results from US11400102B2, “Treatment for bacterial infections with salicylic acid analogs” (priority 2019, dated 2022).
“Also recorded” adds a separate entry of the source. Read-outs that look alike come from different tables or passages of the source.

What was measured:
yersiniabactin = assay: Mutasynthesis study: incorporation of variant salicylic acids into yersiniabactin (LC-MS); assay type: cell-based, uropathogenic E. coli (UTI89ΔybtS)
Procedure: FIG. 11 depicts the experimental protocol for the screening assay. […] a strain of uropathogenic E. coli (UTI89ΔybtS) that cannot produce endogenous salicylic acid but can be chemically complemented with salicylic acid in growth medium. […]+1% casamino acids (CAA) and 20 μM 2′,2′-dipyridyl (DP) were added along with a variety of variant salicylic acids (Table 1) bearing different moieties on carbons 3 to 6. The amount of Ypt in the sample was then quantified using LC-MS.
Walking around the Figure from bottom left: -LC-MS method called neutral loss, where any molecule that loses 187 mass units that are characteristic of yersiniabactin, -different metal species of yersiniabactin can be detected in the supernatant of a UTI89 culture; these have distinct retention times by liquid chromatography; confirm that the molecules contributing to this LC peak are a variant yersiniabactin with a fluorine by the mass.

[1] = system: yersiniabactin biosynthesis; assay: Culture screen of salicylate analogs for yersiniabactin (Fe-Ybt) in UTI89 supernatant by LC-MS; assay type: cell-based, uropathogenic E. coli UTI89; settings: Escherichia coli, read-out: yersiniabactin inhibition
Source text: While investigating in vivo Ybt production in the mouse cystitis model, we observed that a salicylate synthase-deficient uropathogen (UTI89ΔybtS) produces Ybt at near-wild type levels (FIG. 6A). We biochemically connected this phenotype to a uropathogenic ability to scavenge low level urinary salicylate (of presumed dietary origin) (31) as a yersiniabactin biosynthetic substrate. Both human and mouse urine chemically complemented UTI89ΔybtS in this manner, showing that low micromolar salicylate accesses cytoplasmic siderophore biosynthetic enzymes. […] Active compounds could be further divided into those that inhibit the yersiniabactin biosynthetic activity and those that displace the native salicylate substrate, resulting in a variant form of yersiniabactin (vYbt) containing the modified salicylate ring (see fluorinated yersiniabactin in FIG. 6D). The latter process, termed mutasynthesis, has been described for the related pyochelin siderophore system in Pseudomonas (32).
UTI189 cultures were grown overnight in media supplemented with M63+DP+CAA and 50 μM of a salicylic acid analog. Supernatants were then examined for ferric-Ybt and the area of the MS-peak corresponding to that complex was measured. […] In many cases, a 5-fold or greater reduction was observed (FIG. 17).
As described in Example 10, a culture based screen of yersiniabactin biosynthetic inhibitor candidates was undertaken. The screening protocol is described in FIG. 20; E. coli were cultured in 96 well plates at 37° C. in the presence of various yersiniabactin inhibitor candidates. The yersiniabactin secretion in the media was measured using LC-MS using an internal standard (leucine encephalin). Bacterial growth, measured by optical density, was assessed for general toxicity and LC-MS quantification of enterobactin, a related but chemically and biochemically distinct, siderophore in medium at endpoint was measured for off-target activity.

[2] = system: yersiniabactin production; assay: Dose response of yersiniabactin production in UTI89 culture; assay type: cell-based, Uropathogenic E. coli strain UTI89; settings: for EC50: Escherichia coli
Procedure: Three biological triplicate experiments were completed wherein the % Ybt was measured relative to untreated controls (UTI189Δ189 in 70% ETOH). […] The experimental details describing how Ybt was quantified (using mass spectrometry) and how samples were prepared and treated are described in Chaturvedi, K S et al. Nature chemical biology. 8.8(2012):731-736.
FIGS. 25 and 26 show the effect of 5-methyl salicylic acid on yersiniabactin production in an E. coli culture. In FIG. 25, a dose response curve of yersiniabactin synthesis in the presence of increasing concentrations of 5-methyl-salicylate is shown. Uropathogenic E. coli strain UTI89 were grown in low iron culture with the indicated concentrations of 5-methyl salicylate. Yersiniabactin content of culture supernatants was measured by LC-MS/MS relative to an internal standard. The EC50 was determined to be 0.89±0.10 μM. In FIG. 26 a representative mass spectra is depicted illustrating the presence of yersiniabactin fragments in untreated control (left panel) that are missing in media treated with 5-methyl salicylic acid (right panel).
Uropathogenic bacteria were again grown in low iron culture in the presence of varying concentrations of salicylic acid serivatives having different methylation positions.

[3] = system: yersiniabactin production; assay: Yersiniabactin and intermediates (HPT, Esn) in clinical urinary E. coli isolates; assay type: cell-based; settings: 50 μM, FIGS. 30-33
Procedure: The following clinical urinary E. coli isolates were chosen since they each secrete yersiniabactin: rUTI2, JMUSB64(490), JMUSB40(518), JMUSB115(530), JMUSB351(544), JMUB470(557), fCAUTI/B2 (sequence type ST131: ZZ13, ZZ15, ZZ16, ZZ18, ZZ22, and non ST131:ZZ23).
Specifically, HPT and escherichelin (Esn) were measured alongside the end product yersiniabactin. In addition, the production of enterobactin was measured as a counterscreen. In FIGS. 30-33, relative amounts of each analyte (HPT, Esn, Yrt) are depicted for each culture exposed to 50 μM of each inhibitor. A graph corresponding to reference UTI89 is reproduced in each figure (upper left).
There was negligible effect on enterobactin biosynthesis as well as less inhibition of biosynthetic precursors to yersiniabactin: HPT and HPTT. […] In this manner, HPTT/escherichelin production by E. coli may protect human hosts.

[4] = system: yersiniabactin production (YbtE); assay: Aryl acid adenylating enzyme inhibitors: yersiniabactin production by UTI89; assay type: cell-based, E. coli UTI89; settings: AAAE inhibitors
Source text: (§1) Restored yersiniabactin biosynthesis in a salicylate synthase deletion mutant (UTI89ΔybtS) during UTI led us to evaluate the pathway's subsequent biosynthetic enzyme—the aryl acid adenylating enzyme (AAAE) YbtE—as a drug target. UTI89ΔybtE produced no detectable yersiniabactin at 1 day, 1 week or 2 weeks following inoculation and is furthermore less virulent than wild type UTI89, as evidenced by a fewer chronically infected mice, a notable result for a non-conserved gene (FIG. 7A). We evaluated YbtE and its enterobactin pathway equivalent EntE as candidate drug targets using a series of six rationally-designed, non-hydrolyzable nucleoside AAAE inhibitors from the laboratory of Courtney Aldrich (see collaboration letter).
To test whether interference with the downstream adenylating enzyme, YbtE, could also affect yersiniabactin production, a series of YbtE inhibitors were applied to cultures of UTI89 and the Fe-Ybt peak ratio measured (FIG. 19). UT189 was grown overnight in medium supplemented with M63, DP and CAA and 100 μM of the tested compounds. […] Therefore, the salicylic analogs may act to inhibit YbtE, rather than YbtS, in the biosynthetic pathway to reduce overall production of yersiniabactin.

[5] = system: enterobactin production (EntE); assay: Aryl acid adenylating enzyme inhibitors: enterobactin production by UTI89; assay type: cell-based, E. coli UTI89; settings: AAAE inhibitors
Source text: as §1

UPEC urinary growth = assay: Urinary growth assay in the presence of Lcn2; assay type: cell-based, uropathogenic E. coli; settings: human urine
Source text: Both neutrophils and epithelial cells produce and secrete the soluble protein Lipocalin 2 (Lcn2) into the urine and bladder lumen. Lcn2 binds a wide range of […] and their ferric complexes, presumably restricting their availability to bacteria (28). We used purified Lcn2, human urine specimens, and our panel of UPEC siderophore mutants to determine whether siderophore systems counteract Lcn2's presumed bacteriostatic activity. […] We further discovered that this phenotype varies between individual urines such that urinary growth is strongly enterobactin-dependent in some (“restrictive” individuals) and less so in others (“permissive” individuals). We have related this to a distinctive urinary metabolomic biomarker profile (29) in these individuals. […]
Restored yersiniabactin biosynthesis in a salicylate synthase deletion mutant (UTI89ΔybtS) during UTI led us to evaluate the pathway's subsequent biosynthetic enzyme—the aryl acid adenylating enzyme (AAAE) YbtE—as a drug target. […] We evaluated YbtE and its enterobactin pathway equivalent EntE as candidate drug targets using a series of six rationally-designed, non-hydrolyzable nucleoside AAAE inhibitors from the laboratory of Courtney Aldrich (see collaboration letter).

[6] = system: yersiniabactin production; settings: FIG. 37
enterobactin production = settings: FIG. 37
[7] = system: Ybt-deficient (UTI89ΔybtS) culture; assay: Copper toxicity and Ybt cytoprotection in Ybt-deficient culture; settings: 10 μM cupric sulfate
Procedure: Growth was determined and expressed as total CFU ml^−1. […] For each patient, the difference in urinary and nonurinary strain growth is reported such that a positive value indicates prefential growth by the urinary isolate. In the four patients from whom multiple coincident urinary and nonurinary strains were recovered, the mean growth difference is reported. […] NS, nonsignificant, indicating P>0.05. […] Results are shown as mean±s.d.; n=3; *P<0.05, **P<0.01 and ***P<0.001.

**Q.** For `O=C(O)c1c(O)ccc2ccccc12` [2-hydroxy-1-naphthoic acid], which “incorporation into variants of yersiniabactin” value (from here on “incorporation into variants”) (yersiniabactin; listed as 2-hydroxy-1-naphoic acid) is on record?
**A.** lack of incorporation

**Q.** What about the “incorporation into variants” value (yersiniabactin; listed as 2-hydroxy-1-nathoic acid) of the same compound?
**A.** not incorporated

**Q.** How did the inhibition at 50 µM [1] turn out when `O=C(O)c1ccc(Cl)cc1O` [4-chlorosalicylic acid] was run?
**A.** > 90%

**Q.** With `O=C(O)c1cc(F)ccc1O` [5-fluorosalicylic acid] as the compound, how does the “incorporation into variants” value (yersiniabactin) read?
**A.** incorporated; also recorded: incorporation

**Q.** What does the source list for `Cc1ccc(O)c(C(=O)O)c1` [5-methylsalicylic acid]?
**A.** inhibition at 50 µM [1]: > 90%; EC50 ([2]; read-out: EC50, % Ybt relative to untreated controls): ~1900 nM; EC50 ([2]; read-out: EIC, inhibits biosynthesis in culture): ~2000 nM; EC50 ([2]; UTI89, low iron culture, LC-MS/MS, FIG. 25, read-out: EC50, yersiniabactin content of culture supernatants): 890 ± 100 nM; order of yersiniabactin inhibition, most potent to least potent [3]: most potent; yersiniabactin expression in a variety of strains [3]: very effective

**Q.** How did the inhibition at 50 µM [1] turn out when `O=C(O)c1c(O)cccc1F` [6-fluorosalicylic acid] was run?
**A.** > 90%

**Q.** And the “order of yersiniabactin inhibition, most potent to least potent” value [3]?
**A.** least potent

**Q.** What does the source list for `Cc1cccc(O)c1C(=O)O` [6-methylsalicylic acid]?
**A.** inhibition at 50 µM [1]: > 90%; yersiniabactin inhibitory activity, dose response ([2]; low iron culture, methylated salicylic acids, FIG. 27): limited activity

**Q.** `Nc1ncnc2c1ncn2[C@@H]1O[C@H](COS(=O)(=O)NC(=O)c2cccc(O)c2O)[C@@H](O)[C@H]1O` [DHB-AMS] was tested. Which “yersiniabactin production by UTI89” value [4] did it give?
**A.** completely inhibiting

**Q.** And the “enterobactin production by UTI89” value [5]?
**A.** completely inhibiting

**Q.** And the “phenotype in the urinary growth assay” value (UPEC urinary growth)?
**A.** mimicked an enterobactin biosynthesis mutant phenotype

**Q.** Which results are given for `Nc1ncnc2c1ncn2[C@@H]1O[C@H](COS(=O)(=O)NC(=O)c2ccccc2O)[C@@H](O)[C@H]1O` [Sal-AMS]?
**A.** yersiniabactin production by UTI89 [4]: completely inhibiting; enterobactin production by UTI89 [5]: completely inhibiting

**Q.** With `COc1cc(Cc2cnc(N)nc2N)cc(OC)c1OC` [TMP, trimethoprim] as the compound, how does the yersiniabactin production [6] read?
**A.** markedly decrease

**Q.** And the enterobactin production (enterobactin production)?
**A.** not

**Q.** For `O=S(=O)([O-])[O-].[Cu+2]` [copper, cupric sulfate], which decrease in viability [7] is on record?
**A.** > 3 log CFU ml^−1
